Some test systems named below: NCI-H23 lung; PC-3 prostate; M14 melanoma; SK-MEL-5 melanoma; SNB-19 CNS; SK-MEL-2 melanoma; OVCAR-5 ovarian; UACC-62 melanoma; U251 CNS; SK-OV-3 ovarian.
Holding throughout (assay): NCI anticancer screen, dose series, 48 h

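Briefly, cells in 96-well plates were exposed to five compound concentrations for 48 h, and endpoints were estimated by linear interpolation. GI50 marks 50% less growth. TGI: total growth inhibition.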

Turning to `CC(=O)c1c(CBr)n([O-])c2ccccc2[n+]1=O`, the GI50 in the experiment with NCI-H23 lung was 15.7 µM; in the experiment on PC-3 prostate, 15.5 µM; with M14 melanoma, 12.1 µM; with SK-MEL-5 melanoma, 10.5 µM; in the experiment with SNB-19 CNS, 18.8 µM; with SK-MEL-2 melanoma it was 14.4 µM. The GI50 with OVCAR-5 ovarian is 18.5 µM; in the experiment on UACC-62 melanoma, 14.9 µM; in the experiment with U251 CNS it was 16.2 µM; in the experiment with SK-OV-3 ovarian, 22.9 µM. Moreover, the TGI with NCI-H23 lung is 32.6 µM; in the experiment on PC-3 prostate, 33.1 µM; in the experiment with M14 melanoma it was 25.6 µM; with SK-MEL-5 melanoma it was 22.6 µM; in the experiment with SNB-19 CNS, 40 µM; in the experiment on SK-MEL-2 melanoma, 30 µM. Besides, the TGI turned out to be 44.4 µM in the experiment on OVCAR-5 ovarian, 28.6 µM in the experiment on UACC-62 melanoma, 29.9 µM in the experiment with U251 CNS and 71 µM with SK-OV-3 ovarian.

With `O=c1[nH]c2cc(Cl)ccc2n1C1CCN(CCCC(c2ccc(F)cc2)c2ccc(F)cc2)CC1`, the GI50 with NCI-H23 lung is 1.74 µM; in the experiment with PC-3 prostate, 1.69 µM; with M14 melanoma, 1.55 µM; in the experiment with SK-MEL-5 melanoma, 1.55 µM; in the experiment with SNB-19 CNS it was 1.83 µM; with SK-MEL-2 melanoma it was 1.7 µM. For the same compound, the GI50 is 1.74 µM with OVCAR-5 ovarian, 1.71 µM in the experiment with UACC-62 melanoma, 1.54 µM with U251 CNS and 1.82 µM with SK-OV-3 ovarian. Also, the TGI with NCI-H23 lung came to 3.43 µM; in the experiment with PC-3 prostate it was 4.4 µM; with M14 melanoma, 3.05 µM; in the experiment on SK-MEL-5 melanoma, 2.89 µM; with SNB-19 CNS, 3.79 µM; with SK-MEL-2 melanoma, 3.35 µM. In addition, the TGI was determined as 3.43 µM with OVCAR-5 ovarian, 3.13 µM in the experiment with UACC-62 melanoma, 2.87 µM with U251 CNS and 3.72 µM with SK-OV-3 ovarian.

`Cc1[nH]n(-c2cccc(Cl)c2)c(=O)c1/C=C1\C=Nc2ccc(Br)cc21`: the GI50 in the experiment on NCI-H23 lung was 6.65 µM; in the experiment with PC-3 prostate, 3.64 µM; with M14 melanoma, 14.1 µM; in the experiment on SK-MEL-5 melanoma it was 9.48 µM; in the experiment on SNB-19 CNS, 5.79 µM; in the experiment on SK-MEL-2 melanoma it was 10.5 µM. Besides, the GI50 in the experiment with OVCAR-5 ovarian is 3.1 µM; with UACC-62 melanoma, 4.34 µM; in the experiment with U251 CNS, 2.83 µM; in the experiment on SK-OV-3 ovarian, 2.22 µM. Also, the TGI in the experiment on NCI-H23 lung is 26.4 µM; with PC-3 prostate, 22.3 µM; in the experiment with M14 melanoma it was more than 100 µM; with SK-MEL-5 melanoma, more than 100 µM; with SNB-19 CNS, 25.7 µM; in the experiment on SK-MEL-2 melanoma, 24.6 µM. Also, the TGI in the experiment on OVCAR-5 ovarian is 10.2 µM; with UACC-62 melanoma it was 18.2 µM; in the experiment with U251 CNS, 8.65 µM; in the experiment with SK-OV-3 ovarian, 4.53 µM.

`O=C(Nc1cccc(Cl)c1Cl)c1cccc(NC2=C(Cl)C(=O)N(Cc3ccccc3)C2=O)c1`: the GI50 in the experiment with NCI-H23 lung is 41.4 µM; in the experiment on PC-3 prostate, 26.9 µM; with M14 melanoma it was 35.8 µM; with SK-MEL-5 melanoma, 20.1 µM; with SNB-19 CNS, more than 100 µM; in the experiment on SK-MEL-2 melanoma it was 16.9 µM. Also, the GI50 is 89.5 µM with OVCAR-5 ovarian, 22.2 µM with UACC-62 melanoma, 46.2 µM in the experiment on U251 CNS and more than 100 µM in the experiment with SK-OV-3 ovarian. The TGI in the experiment with NCI-H23 lung is more than 100 µM; in the experiment with PC-3 prostate, 97.4 µM; with M14 melanoma, more than 100 µM; in the experiment with SK-MEL-5 melanoma, more than 100 µM; in the experiment on SNB-19 CNS, more than 100 µM; in the experiment on SK-MEL-2 melanoma, 58.6 µM. Moreover, the TGI with OVCAR-5 ovarian, in the experiment with UACC-62 melanoma, with U251 CNS and in the experiment with SK-OV-3 ovarian was more than 100 µM throughout.

Consider `CC(=O)Oc1ccc(Nc2c3ccccc3nc3ccccc23)cc1`, for which the GI50 with NCI-H23 lung was 1.17 µM; in the experiment with PC-3 prostate, 2.12 µM; with M14 melanoma it was 1.46 µM; in the experiment with SK-MEL-5 melanoma it was 0.984 µM; with SNB-19 CNS it was 1.86 µM; with SK-MEL-2 melanoma, 1.8 µM. In addition, the GI50 in the experiment on OVCAR-5 ovarian is 2.08 µM; in the experiment with UACC-62 melanoma it was 1.1 µM; with U251 CNS it was 1.55 µM; with SK-OV-3 ovarian, 1.47 µM. For the same compound, the TGI with NCI-H23 lung was 2.98 µM; in the experiment on PC-3 prostate, 13.3 µM; in the experiment on M14 melanoma, 3.7 µM; in the experiment with SK-MEL-5 melanoma, 2.15 µM; in the experiment with SNB-19 CNS, 11.9 µM; with SK-MEL-2 melanoma it was 3.79 µM. In addition, the TGI with OVCAR-5 ovarian is 6.75 µM; in the experiment on UACC-62 melanoma it was 2.61 µM; in the experiment with U251 CNS it was 8.85 µM; in the experiment on SK-OV-3 ovarian, 5.91 µM.

As to `CC(=O)Oc1ccccc1C(=O)N=C1[Se]CCN1C(=O)c1ccccc1OC(C)=O`, the GI50 was 1.56 µM with NCI-H23 lung; 1.06 µM in the experiment with PC-3 prostate; 0.523 µM in the experiment on M14 melanoma; 0.566 µM with SK-MEL-5 melanoma; 1.23 µM in the experiment on SNB-19 CNS; 1.42 µM in the experiment on SK-MEL-2 melanoma. For the same compound, the GI50 in the experiment with OVCAR-5 ovarian is 0.839 µM; in the experiment on UACC-62 melanoma it was 1.04 µM; in the experiment with U251 CNS, 0.734 µM; in the experiment on SK-OV-3 ovarian, 1.05 µM. The TGI in the experiment on NCI-H23 lung stood at 5.43 µM; with PC-3 prostate it was 4.88 µM; with M14 melanoma, 2.2 µM; with SK-MEL-5 melanoma, 2.05 µM; in the experiment with SNB-19 CNS, 4.31 µM; in the experiment with SK-MEL-2 melanoma, 3.91 µM. In addition, the TGI is 6.11 µM in the experiment on OVCAR-5 ovarian, 2.84 µM with UACC-62 melanoma, 2.18 µM in the experiment with U251 CNS and 2.82 µM in the experiment on SK-OV-3 ovarian.

Consider `CN1CCc2c(Sc3ccc(C(=O)NO)cc3)c3ccccc3n2C1`, for which the GI50 with NCI-H23 lung was 1.7 µM; with PC-3 prostate it was 1.63 µM; in the experiment on M14 melanoma it was 1.81 µM; in the experiment with SK-MEL-5 melanoma, 2.39 µM; in the experiment on SNB-19 CNS it was 2.12 µM; in the experiment on SK-MEL-2 melanoma it was 2.01 µM. Besides, the GI50 with OVCAR-5 ovarian was 2.6 µM; in the experiment on UACC-62 melanoma, 1.62 µM; in the experiment on U251 CNS, 1.6 µM; with SK-OV-3 ovarian it was 2.08 µM. For the same compound, the TGI in the experiment on NCI-H23 lung was 3.88 µM; in the experiment on PC-3 prostate, 4.01 µM; in the experiment on M14 melanoma, 4.53 µM; in the experiment with SK-MEL-5 melanoma it was 6.67 µM; in the experiment on SNB-19 CNS, 6.79 µM; in the experiment on SK-MEL-2 melanoma it was 4.55 µM. The TGI worked out at 10.7 µM with OVCAR-5 ovarian, 3.65 µM in the experiment with UACC-62 melanoma, 3.29 µM in the experiment on U251 CNS and 5.67 µM in the experiment on SK-OV-3 ovarian.

As to `COc1ccc(/C=c2/sc3n(c2=O)C(c2ccc(OC)c(OC)c2)C2=C(N=3)c3cc(F)ccc3OC2)cc1` (stereo not given), the GI50 is 3.69 µM with NCI-H23 lung; 17.6 µM in the experiment with PC-3 prostate; 36.9 µM in the experiment with M14 melanoma; 22.3 µM in the experiment on SK-MEL-5 melanoma; more than 53.2 µM with SNB-19 CNS; more than 45.2 µM with SK-MEL-2 melanoma. For the same compound, the GI50 with OVCAR-5 ovarian was 52.8 µM; in the experiment on UACC-62 melanoma, 17.9 µM; in the experiment on U251 CNS it was 20.9 µM; in the experiment with SK-OV-3 ovarian it was more than 57 µM. Further, the TGI in the experiment on NCI-H23 lung is 26.1 µM; with PC-3 prostate, more than 100 µM; in the experiment with M14 melanoma, more than 100 µM; in the experiment on SK-MEL-5 melanoma, more than 62.4 µM; in the experiment with SNB-19 CNS, more than 100 µM; in the experiment with SK-MEL-2 melanoma, more than 92.4 µM. Besides, the TGI in the experiment on OVCAR-5 ovarian was more than 100 µM; in the experiment on UACC-62 melanoma it was more than 63.3 µM; in the experiment on U251 CNS, more than 78.5 µM; in the experiment on SK-OV-3 ovarian, more than 100 µM.

With `O=C(N/N=C\c1cc(Br)ccc1O)c1ccncc1`, the GI50 is 3.61 µM in the experiment on NCI-H23 lung; 1.87 µM in the experiment on PC-3 prostate; 2.45 µM in the experiment with M14 melanoma; 2.6 µM in the experiment with SK-MEL-5 melanoma; 5.65 µM with SNB-19 CNS; 4.29 µM in the experiment with SK-MEL-2 melanoma. In addition, the GI50 was 3.76 µM in the experiment on OVCAR-5 ovarian, 1.45 µM with UACC-62 melanoma, 1.92 µM with U251 CNS and 4.79 µM in the experiment with SK-OV-3 ovarian. For the same compound, the TGI in the experiment with NCI-H23 lung was more than 100 µM; in the experiment on PC-3 prostate, more than 100 µM; in the experiment with M14 melanoma, 26 µM; in the experiment on SK-MEL-5 melanoma, 21.8 µM; in the experiment on SNB-19 CNS it was more than 100 µM; in the experiment on SK-MEL-2 melanoma it was more than 100 µM. Besides, the TGI with OVCAR-5 ovarian was more than 100 µM; in the experiment with UACC-62 melanoma, 7.4 µM; in the experiment with U251 CNS, 68.8 µM; in the experiment with SK-OV-3 ovarian it was more than 100 µM.

With `CSC1(CC(=O)N(C)C)C(=O)Nc2ccccc21` (stereo not given), the TGI in the experiment with NCI-H23 lung, in the experiment on PC-3 prostate, in the experiment on M14 melanoma, in the experiment with SK-MEL-5 melanoma, with SNB-19 CNS and in the experiment on SK-MEL-2 melanoma was more than 100 µM each time. Besides, the TGI in the experiment on OVCAR-5 ovarian, in the experiment on UACC-62 melanoma, with U251 CNS and in the experiment on SK-OV-3 ovarian was more than 100 µM each time.

As for `COc1cc2c(cc1OC)C13CCN4CC5=CCOC6CC(=O)N2C1C6C5CC43O` (stereo not given), the TGI in the experiment on NCI-H23 lung, with PC-3 prostate, in the experiment on M14 melanoma, in the experiment on SK-MEL-5 melanoma, with SNB-19 CNS and in the experiment with SK-MEL-2 melanoma was more than 100 µM each time. For the same compound, the TGI in the experiment on OVCAR-5 ovarian, in the experiment on UACC-62 melanoma, in the experiment with U251 CNS and in the experiment with SK-OV-3 ovarian was more than 100 µM each time.

The values above are taken from PubChem BioAssay (NCI).
